# Results: patent US20130085106A1, “METHODS AND FORMULATIONS FOR OXYTOCIN TREATMENT OF SUBSTANCE USE, PSYCHIATRIC AND OTHER DISORDERS” (THE UNIVERSITY OF NORTH CAROLINA AT CHAPEL HILL, priority 2010, published 2013)
# Ends that are not written are not given here.
# What was measured:
# [1] = test system: alcohol dependent patients; assay: Double-blind, placebo controlled trial of twice daily intranasal oxytocin for alcohol withdrawal (Example 2); type: in vivo, human
# Excerpt: This is a double-blind, placebo controlled comparison of the efficacy of twice daily intranasal administration of oxytocin and placebo (saline) in reducing alcohol withdrawal symptoms, the number of bouts of withdrawal during which symptoms are of sufficient magnitude requiring lorazepam treatment (see definitions below) and the amount of lorazepam required to resolve withdrawal bouts. Treatment group assignment are random within each sex. Subjects are patients admitted to UNC Hospitals or the UNC CTRC for medical detoxification. Each treatment group is composed of up to 40 subjects. The study statistician constructs a randomization plan to randomize 80 subjects to 2 groups of 40 subjects each with a blocksize of 4. This is a permuted blocksize as this is a blind study.
# Informed consent is obtained the morning after admission to the UNC Hospitals medical units or before the outpatient screening evaluation before admission to the UNC CTRC. After consent is obtained, subjects are randomly assigned to a treatment group (oxytocin or placebo). Prior to receiving their first intranasal treatment, an ECG is obtained and blood drawn to obtain serum for assay of cytokine and allopregnanolone concentrations. Subjects also rate their symptoms using the Alcohol Withdrawal Symptom Checklist (AWSC, Pittman et al., Alcohol Clin. Exp. Res. 31: 612-618 (2007)) prior to receiving their first test dose. These procedures are done/overseen by research nurses or physicians. Subjects usually receive their first intranasal test dose between 1000 and 1200 hours, which consists of 6 insufflations of SYNTOCINON® Spray (approximately 24 IU) or placebo, with each insufflation given 30 seconds apart and alternating between nostrils. Test doses taken again at 1700 hr later that day (Admission Day 1) and at 0900 and 1700 hr on Admission Days 2 and 3. Oxytocin test treatments are administered from 5 ml intranasal spray vials designed to deliver 0.1 ml metered volume per insufflation. The placebo treatments are administered from 60 ml intranasal spray vials (each containing 30 ml of solution) also designed to deliver 0.1 ml metered volume per insufflation. Vials containing oxytocin and placebo spray are blind labeled by the UNC Investigational Drug Service. Research nurses or physicians oversee subject self-administration of all intranasal test doses. After enrollment on Admission day 1 and in the morning on Admission days 2 and 3, subjects are given multiple copies of the AWSC questionnaire and requested to complete one each time the unit nurses do CIWA ratings. These questionnaires are retrieved by research staff the following morning. Shortly after the morning test dose on Admission days 2 and 3, subjects complete the Alcohol Craving Visual Analog Scales (ACVAS), the Penn Alcohol Craving Scale (PACS), and the Profile of Mood States (McNair et al., (1971) EDITS manual for the profile of mood states. San Diego, Calif. Educational and Industrial Testing Service). In addition, a consumption diary is administered and given to the subject to quantify the amount of alcohol participants have been consuming prior to admission in the study. On Days 2 and 3, research nurses also draw (and subsequently process) blood serum samples to assay cytokine and allopregnanolone concentrations shortly after the morning test dose. Additional blood is drawn after the morning test dose on admission day 2 to obtain serum for tests to be run (magnesium, Cl, Ca, Na, K, BUN, creatinine, and GGT). Another ECG is also obtained shortly after the morning test treatment on Admission day 2. Research staff retrieves on a daily basis CIWA ratings and vital sign measurements obtained on each subject from their electronic medical record.
# In all subjects, lorazepam doses are administered PO or IV (if subjects cannot take medication PO) whenever CIWA ratings are ≧12. CIWA ratings are obtained 1 hr after the initial dose of lorazepam and another dose administered if CIWA ratings ≧10. […]
# [2] = test system: patients with paranoid or undifferentiated schizophrenia; assay: Randomized, double blind, placebo-controlled 2-week intranasal oxytocin trial in schizophrenia (Example 7); type: in vivo, human
# Excerpt: Twenty-three subjects were initially enrolled; 2 dropped out before randomization to treatment and 1 dropped out early because they developed an upper respiratory infection; the remaining 20 completed the protocol and constitute our study sample. Inclusion criteria were: 18-55 years of age, DSM-IV diagnosis of paranoid or undifferentiated schizophrenia ≧1 year, PANSS total score ≧60, PANSS suspiciousness/persecutory item score ≧4 or 3 on this item and ≧3 on at least one other social behavior-relevant PANSS item (hostility, passive/apathetic social withdrawal, uncooperativeness, active social withdrawal), treatment with one or more standard antipsychotic medications, stability of medication doses and symptoms ≧1 month.
# (§1) This was a randomized, double blind, placebo-controlled 2-week treatment trial. Screening of each subject included a review of psychiatric and medical history, physical examination, an ECG, and blood and urine collection for standard laboratory tests. Within 1 week after screening, baseline social cognition measures were obtained followed by psychiatric ratings. Daily intranasal treatments were initiated after baseline assessments. Social cognition measures and psychiatric ratings were repeated beginning 50 minutes after the AM dose of study medication on treatment day 14. The social cognition instruments were the Brüne Theory of Mind Picture Stories Task (Brüne, (2003) Social cognition and behaviour in schizophrenia. In Brüne, Ribbert, Schiefenhövel (eds.) The social brain-evolution and pathology. John Wiley & Sons; Chichester, pp. 277-313) and the Trustworthiness Task (Adolphs et al., Nature 393: 470-474 (1998)). Psychiatric measures included the Positive and Negative Symptom Scale (PANSS) (Kay et al., Schizophr. Bull. 13: 261-276 (1987))) and the Paranoia Scale (Fenigstein & Vanable, J. Pers. Soc. Psych. 62: 129-138 (1992))). The first 10 subjects were studied as inpatients on a clinical research unit and the last 10 subjects were studied in an outpatient research clinic. Blood and urine laboratory tests, ECGs and body weights were obtained at screening and treatment day 14 in all subjects and also on treatment days 3 and 7 in inpatients.
# (§2) Subjects remained on their pre-study medication regimen and doses throughout the treatment trial. They self-administered intranasal study drug twice daily; before breakfast and before dinner. Each dose consisted of six 0.1 ml insufflations (alternating between the left and right nostril) of oxytocin spray containing approximately 24 international units of oxytocin (SYNTOCINON® Spray, Novartis) or placebo. Outpatient compliance with test treatments was monitored by weighing spray vials before they were dispensed and after the morning dose on treatment day 14.
# All dependent variables were examined for normality and skewness prior to analyses. We compared oxytocin and placebo group means using an unpaired t test for the following baseline variables: demographic, psychiatric history and diagnosis, inpatient versus outpatient status, social cognition and psychiatric measures. We performed a paired t test within each treatment group examining changes from baseline to two weeks on the following variables: biological (laboratory test values, vital signs), social cognition measures (Brüne Task, Trustworthiness Task), and psychiatric measures (PANSS total and subscales, Paranoia Scale). To compare the treatment groups over time on social cognition and psychiatric variables, we used analysis of covariance controlling for the baseline measure of the dependent variable.
# [3] = test system: subjects with schizophrenia; assay: Expanded two-week intranasal oxytocin study in schizophrenia, 25 subjects (Example 8); type: in vivo, human; details: for Brüne 2nd false belief, M / Brüne 3nd false belief, M / Brüne deception, M / PANSS general score, M / PANSS negative score, M / PANSS positive score, M / PANSS social items mean (suspiciousness, hostility, social withdrawal passive/active, uncooperativeness), M / PANSS total score, M / Paranoia Scale, M / Trustworthiness task (ratings of untrustworthy faces), M: N = 14
# Excerpt: as §1, §2
# We have expanded our double blind, placebo-controlled pilot study described in Example 7 to include 25 subjects with schizophrenia in which we compared the effects of 14 days of twice daily intranasal oxytocin (24 IU/dose, N=14) vs. placebo (N=11) administration on PANSS (Positive and Negative Symptom Scale) total and PANSS item scores, subject self-ratings on the Paranoia Scale and performance on social cognition tests (the Brüne Theory of Mind Picture Stories Task and the Trustworthiness Task). As in the smaller study, all subjects' symptoms and psychotropic medication regimens were stable for ≧1 month prior to the treatment trial. Medication doses remained the same during the study period.
# Because of our interest in oxytocin effects on social function in schizophrenia, we focused our statistical analysis on an a priori subset of PANSS items: P6 (suspiciousness/persecution [paranoia]), P7 (hostility), N4 (passive/apathetic social withdrawal), G8 (uncooperativeness) and G16 (active social avoidance). These items were used as inclusion criteria for this study (see description in Example 7). Values on these items are highly correlated in our sample (Cronbach's alpha=0.84).
# [4] = Burbach et al., Eur. J. Pharmacol. 94: 125-131 (1983); cited from earlier work
# [5] = ANCOVA controlling for baseline, 14-day treatment
compound,measurement,setting,value
"CC[C@H](C)[C@@H]1NC(=O)[C@H](Cc2ccc(O)cc2)NC(=O)[C@@H](N)CSSC[C@@H](C(=O)N2CCC[C@H]2C(=O)N[C@@H](CC(C)C)C(=O)NCC(N)=O)NC(=O)[C@H](CC(N)=O)NC(=O)[C@H](CCC(N)=O)NC1=O [Oxytocin, oxytocin]",adverse events,"[1]; 3 days of protocol, all 10 subjects",no unexpected adverse events
same,"Total lorazepam (mg) required to control withdrawal symptoms, Mean","[1]; 3 days of protocol, intranasal approx. 24 IU twice daily, N=6",2.33 mg
same,Mean CIWA Day 1,"[1]; Day 1, intranasal approx. 24 IU twice daily, N=6",2.40
same,Mean AWSC Day 1,"[1]; Day 1, self-rating, N=6",6.17
same,Mean ACVAS Day 2,"[1]; Day 2, 100 mm Alcohol Craving Visual Analog Scale, N=6",33.83
same,Mean CIWA Day 2,"[1]; Day 2, N=6",0.81
same,Mean PACS Day 2,"[1]; Day 2, Penn Alcohol Craving Scale, N=6",13.33
same,Mean AWSC Day 2,"[1]; Day 2, self-rating, N=6",5.40
same,Mean ACVAS Day 3,"[1]; Day 3, 100 mm Alcohol Craving Visual Analog Scale, N=6",11.23
same,Mean CIWA Day 3,"[1]; Day 3, N=6",1.52
same,Mean PACS Day 3,"[1]; Day 3, Penn Alcohol Craving Scale, N=6",9.33
same,Mean AWSC Day 3,"[1]; Day 3, self-rating, N=6",3.78
same,subjects that required no lorazepam treatment at all,"[1]; oxytocin treatment group, 3-day detoxification",4 of the 6
same,"PANSS general subscale scores, LS mean",[2]; [5],34.34
same,"PANSS total scores, Least squared (LS) mean",[2]; [5],70.56
same,group differences in change over the treatment period for other PANSS or social cognition variables,"[2]; ANCOVA, oxytocin vs placebo",no group differences
same,decline in PANSS general subscale scores compared to placebo,"[2]; ANCOVA, F=3.78, p=0.069",trend toward a significantly greater decline
same,decline in PANSS total scores compared to the placebo group,"[2]; ANCOVA, F=4.60, p=0.047",significantly greater decline
same,"change in other Brüne Task measures (second order belief, third order false belief, recognition of cheating)",[2]; baseline to treatment day 14,no changes that approached significance
same,declines in PANSS positive symptom subscale scores compared to the Placebo group,"[3]; ANOVA, F=3.10, p=0.0923",trends toward significantly greater declines
same,declines in PANSS social items mean scores compared to the Placebo group,"[3]; ANOVA, F=3.15, p=0.0898",trends toward significantly greater declines
same,decline in PANSS total score compared to the Placebo group,"[3]; ANOVA, F=4.29, p=0.05",significantly greater decline
same,"Brüne 2nd false belief, M",[3]; Baseline,1.93
same,"Brüne 3nd false belief, M",[3]; Baseline,1.93
same,"Brüne deception, M",[3]; Baseline,2.43
same,"PANSS general score, M",[3]; Baseline,38.21
same,"PANSS negative score, M",[3]; Baseline,20.36
same,"PANSS positive score, M",[3]; Baseline,19.79
same,"PANSS social items mean (suspiciousness, hostility, social withdrawal passive/active, uncooperativeness), M",[3]; Baseline,2.91
same,"PANSS total score, M",[3]; Baseline,79.00
same,"Paranoia Scale, M",[3]; Baseline,48.00
same,"Trustworthiness task (ratings of untrustworthy faces), M",[3]; Baseline,−15.71
same,"PANSS total score, M","[3]; Tx Day 14, 24 IU/dose intranasal twice daily",69.21
same,"Brüne 2nd false belief, M",[3]; Tx Day 14,2.29
same,"Brüne 3nd false belief, M",[3]; Tx Day 14,2.43
same,"Brüne deception, M",[3]; Tx Day 14,2.86
same,"PANSS general score, M",[3]; Tx Day 14,34.07
same,"PANSS negative score, M",[3]; Tx Day 14,18.00
same,"PANSS positive score, M",[3]; Tx Day 14,17.14
same,"PANSS social items mean (suspiciousness, hostility, social withdrawal passive/active, uncooperativeness), M",[3]; Tx Day 14,2.39
same,"Paranoia Scale, M",[3]; Tx Day 14,45.00
same,"Trustworthiness task (ratings of untrustworthy faces), M",[3]; Tx Day 14,−10.36
"oxytocin fragment 4-9: biologically active fragment of oxytocin, reported to be more potent than the full-length molecule (QNCPLG; ends and bridges not checked; UniProt P01178 23-28, looked up, fragment)",potency relative to the full-length molecule,[4],more potent than the full-length molecule
